According to publication PMC4490784, “Compensatory induction of MYC expression by sustained CDK9 inhibition via a BRD4-dependent mechanism” (eLife, 2015):

Experiments:
Assay in all cases: KINOMEscan binding assay
JNK1 = biological target: T1, JNK1 (Homo sapiens, UniProt P45983)
T1 construct: purchased DiscoveRx KINOMEscan
Summary of the method: (§1)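 Binding, not catalytic activity, is measured: the compound competes with an active-site-directed ligand. Screening concentrations were 1 and 10 µM, applied across more than 400 kinases.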

PAK6 = biological target: T2, PAK6 (Homo sapiens, UniProt Q9NQU5); conditions: read-out: % Retention on Solid Support
T2 construct: purchased DiscoveRx KINOMEscan
Summary of the method: as §1

RET(M918T) = biological target: T3, RET(M918T) (Homo sapiens, UniProt P07949, M918T); conditions: read-out: % Retention on Solid Support
T3 construct: purchased DiscoveRx KINOMEscan
Summary of the method: as §1

SRMS = biological target: T4, SRMS (Homo sapiens, UniProt Q9H3Y6); conditions: read-out: % Retention on Solid Support
T4 construct: purchased DiscoveRx KINOMEscan
Summary of the method: as §1

ERBB2 = biological target: T5, ERBB2 (Homo sapiens, UniProt P04626); conditions: read-out: % Retention on Solid Support
T5 construct: purchased DiscoveRx KINOMEscan
Summary of the method: as §1

ASK2 = biological target: T6, ASK2 (Homo sapiens, UniProt O95382); conditions: read-out: % Retention on Solid Support
T6 construct: purchased DiscoveRx KINOMEscan
Summary of the method: as §1

PCTK3 = biological target: T7, PCTK3 (Homo sapiens, UniProt Q07002); conditions: read-out: % Retention on Solid Support
T7 construct: purchased DiscoveRx KINOMEscan
T7 sequence (Q07002 whole entry): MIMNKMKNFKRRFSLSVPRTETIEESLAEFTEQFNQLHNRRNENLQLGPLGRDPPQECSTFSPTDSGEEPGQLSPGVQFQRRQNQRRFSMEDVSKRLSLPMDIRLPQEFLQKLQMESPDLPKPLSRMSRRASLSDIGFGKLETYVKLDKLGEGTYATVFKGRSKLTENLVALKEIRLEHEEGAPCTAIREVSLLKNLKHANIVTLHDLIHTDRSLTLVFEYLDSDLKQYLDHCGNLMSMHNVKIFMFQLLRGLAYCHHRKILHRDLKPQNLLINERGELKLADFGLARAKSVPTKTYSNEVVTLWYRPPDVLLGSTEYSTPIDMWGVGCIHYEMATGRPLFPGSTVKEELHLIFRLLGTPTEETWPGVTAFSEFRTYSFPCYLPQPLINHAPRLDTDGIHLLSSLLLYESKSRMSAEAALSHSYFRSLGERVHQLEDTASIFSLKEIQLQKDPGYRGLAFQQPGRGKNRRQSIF
Summary of the method: as §1

MST4 = biological target: T8, MST4 (Homo sapiens, UniProt Q9P289); conditions: read-out: % Retention on Solid Support
T8 construct: purchased DiscoveRx KINOMEscan
T8 sequence (Q9P289 whole entry): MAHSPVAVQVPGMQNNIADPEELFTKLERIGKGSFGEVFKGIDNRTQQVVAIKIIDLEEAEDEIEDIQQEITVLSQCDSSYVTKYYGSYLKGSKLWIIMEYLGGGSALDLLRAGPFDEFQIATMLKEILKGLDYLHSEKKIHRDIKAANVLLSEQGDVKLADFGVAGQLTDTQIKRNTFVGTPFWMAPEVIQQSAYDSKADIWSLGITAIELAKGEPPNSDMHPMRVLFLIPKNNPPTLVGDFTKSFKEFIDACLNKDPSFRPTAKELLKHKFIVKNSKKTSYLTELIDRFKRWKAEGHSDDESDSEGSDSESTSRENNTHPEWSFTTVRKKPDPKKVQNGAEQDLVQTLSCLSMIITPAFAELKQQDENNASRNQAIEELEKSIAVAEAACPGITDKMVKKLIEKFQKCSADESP
Summary of the method: as §1

SRC = biological target: T9, SRC (Homo sapiens, UniProt P12931); conditions: read-out: % Retention on Solid Support
T9 construct: purchased DiscoveRx KINOMEscan
Summary of the method: as §1

DAPK3 = biological target: T10, DAPK3 (Homo sapiens, UniProt O43293); conditions: read-out: % Retention on Solid Support
T10 construct: purchased DiscoveRx KINOMEscan
Summary of the method: as §1

EPHA2 = biological target: T11, EPHA2 (Homo sapiens, UniProt P29317); conditions: read-out: % Retention on Solid Support
T11 construct: purchased DiscoveRx KINOMEscan
T11 sequence (P29317 24-976): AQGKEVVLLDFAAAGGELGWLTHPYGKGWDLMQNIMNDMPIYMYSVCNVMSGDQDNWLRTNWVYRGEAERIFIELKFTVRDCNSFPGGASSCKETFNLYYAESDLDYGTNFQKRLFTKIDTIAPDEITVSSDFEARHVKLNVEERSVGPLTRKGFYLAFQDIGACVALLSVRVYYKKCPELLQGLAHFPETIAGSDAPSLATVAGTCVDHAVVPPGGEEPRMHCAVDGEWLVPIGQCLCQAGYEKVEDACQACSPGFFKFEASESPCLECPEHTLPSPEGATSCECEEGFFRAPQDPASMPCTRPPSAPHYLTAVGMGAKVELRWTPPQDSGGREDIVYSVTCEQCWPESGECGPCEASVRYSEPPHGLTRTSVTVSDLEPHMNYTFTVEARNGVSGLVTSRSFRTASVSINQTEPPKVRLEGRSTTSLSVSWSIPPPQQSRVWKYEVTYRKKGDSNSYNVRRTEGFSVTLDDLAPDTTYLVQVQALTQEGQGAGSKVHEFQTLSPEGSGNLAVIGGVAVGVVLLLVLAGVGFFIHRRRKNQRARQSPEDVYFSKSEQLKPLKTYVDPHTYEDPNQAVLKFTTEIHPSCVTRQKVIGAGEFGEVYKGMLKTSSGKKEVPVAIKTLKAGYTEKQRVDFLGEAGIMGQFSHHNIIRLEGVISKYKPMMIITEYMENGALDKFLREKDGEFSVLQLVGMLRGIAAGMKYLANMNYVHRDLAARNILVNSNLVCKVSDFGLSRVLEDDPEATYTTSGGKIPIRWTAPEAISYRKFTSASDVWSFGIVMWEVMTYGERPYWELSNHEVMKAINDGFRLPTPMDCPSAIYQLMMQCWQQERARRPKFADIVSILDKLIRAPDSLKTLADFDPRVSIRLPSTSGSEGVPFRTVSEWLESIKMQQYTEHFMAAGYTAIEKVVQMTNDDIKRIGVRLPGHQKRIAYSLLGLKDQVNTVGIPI
Summary of the method: as §1

PCTK1 = biological target: T12, PCTK1 (Homo sapiens, UniProt Q00536); conditions: read-out: % Retention on Solid Support
T12 construct: purchased DiscoveRx KINOMEscan
Summary of the method: as §1

ARK5 = biological target: T13, ARK5 (Homo sapiens, UniProt O60285)
T13 construct: purchased DiscoveRx KINOMEscan
Summary of the method: as §1

FLT3(K663Q) = biological target: T14, FLT3(K663Q) (Homo sapiens, UniProt P36888, K663Q); conditions: read-out: % Retention on Solid Support
T14 construct: purchased DiscoveRx KINOMEscan
Summary of the method: as §1

ERK8 = biological target: T15, ERK8 (Homo sapiens, UniProt Q8TD08); conditions: read-out: % Retention on Solid Support
T15 construct: purchased DiscoveRx KINOMEscan
Summary of the method: as §1

PDPK1 = biological target: T16, PDPK1 (Homo sapiens, UniProt O15530); conditions: read-out: % Retention on Solid Support
T16 construct: purchased DiscoveRx KINOMEscan
T16 sequence (O15530 1-556): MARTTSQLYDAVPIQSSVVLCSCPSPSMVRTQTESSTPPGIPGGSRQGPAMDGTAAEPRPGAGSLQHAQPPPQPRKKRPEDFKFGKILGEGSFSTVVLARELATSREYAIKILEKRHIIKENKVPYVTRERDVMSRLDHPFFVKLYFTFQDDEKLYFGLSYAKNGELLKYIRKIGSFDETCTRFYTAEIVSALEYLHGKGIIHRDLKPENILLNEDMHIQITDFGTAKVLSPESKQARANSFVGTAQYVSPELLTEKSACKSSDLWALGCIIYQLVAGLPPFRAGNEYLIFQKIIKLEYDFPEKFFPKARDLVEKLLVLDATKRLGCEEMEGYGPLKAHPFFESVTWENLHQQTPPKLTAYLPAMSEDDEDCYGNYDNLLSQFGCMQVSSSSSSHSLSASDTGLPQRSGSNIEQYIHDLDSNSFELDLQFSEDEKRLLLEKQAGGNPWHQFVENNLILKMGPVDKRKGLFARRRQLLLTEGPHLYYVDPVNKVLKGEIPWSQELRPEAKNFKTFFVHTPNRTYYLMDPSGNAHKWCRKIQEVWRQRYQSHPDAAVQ
Summary of the method: as §1

MAP3K3 = biological target: T17, MAP3K3 (Homo sapiens, UniProt Q99759); conditions: read-out: % Retention on Solid Support
T17 construct: purchased DiscoveRx KINOMEscan
T17 sequence (Q99759 whole entry): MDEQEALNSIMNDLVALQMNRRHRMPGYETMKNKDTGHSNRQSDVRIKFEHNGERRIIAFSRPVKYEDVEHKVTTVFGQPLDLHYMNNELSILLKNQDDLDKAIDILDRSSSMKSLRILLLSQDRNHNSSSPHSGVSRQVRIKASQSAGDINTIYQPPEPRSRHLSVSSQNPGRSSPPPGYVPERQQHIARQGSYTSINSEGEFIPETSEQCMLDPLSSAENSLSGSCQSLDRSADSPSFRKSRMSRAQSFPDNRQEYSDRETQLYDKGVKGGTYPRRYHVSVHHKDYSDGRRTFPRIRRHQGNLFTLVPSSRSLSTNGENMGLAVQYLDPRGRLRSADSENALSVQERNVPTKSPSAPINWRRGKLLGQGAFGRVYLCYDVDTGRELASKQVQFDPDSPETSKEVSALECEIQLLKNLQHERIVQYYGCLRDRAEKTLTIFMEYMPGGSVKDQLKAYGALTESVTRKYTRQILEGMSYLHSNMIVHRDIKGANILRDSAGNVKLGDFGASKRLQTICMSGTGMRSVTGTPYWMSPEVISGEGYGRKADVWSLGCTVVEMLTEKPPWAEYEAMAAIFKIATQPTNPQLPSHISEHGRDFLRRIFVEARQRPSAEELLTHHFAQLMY
Summary of the method: as §1

PAK7 = biological target: T18, PAK7 (Homo sapiens, UniProt Q9P286); conditions: read-out: % Retention on Solid Support
T18 construct: purchased DiscoveRx KINOMEscan
Summary of the method: as §1

LTK = biological target: T19, LTK (Homo sapiens, UniProt P29376); conditions: read-out: % Retention on Solid Support
T19 construct: purchased DiscoveRx KINOMEscan
T19 sequence (P29376 17-864): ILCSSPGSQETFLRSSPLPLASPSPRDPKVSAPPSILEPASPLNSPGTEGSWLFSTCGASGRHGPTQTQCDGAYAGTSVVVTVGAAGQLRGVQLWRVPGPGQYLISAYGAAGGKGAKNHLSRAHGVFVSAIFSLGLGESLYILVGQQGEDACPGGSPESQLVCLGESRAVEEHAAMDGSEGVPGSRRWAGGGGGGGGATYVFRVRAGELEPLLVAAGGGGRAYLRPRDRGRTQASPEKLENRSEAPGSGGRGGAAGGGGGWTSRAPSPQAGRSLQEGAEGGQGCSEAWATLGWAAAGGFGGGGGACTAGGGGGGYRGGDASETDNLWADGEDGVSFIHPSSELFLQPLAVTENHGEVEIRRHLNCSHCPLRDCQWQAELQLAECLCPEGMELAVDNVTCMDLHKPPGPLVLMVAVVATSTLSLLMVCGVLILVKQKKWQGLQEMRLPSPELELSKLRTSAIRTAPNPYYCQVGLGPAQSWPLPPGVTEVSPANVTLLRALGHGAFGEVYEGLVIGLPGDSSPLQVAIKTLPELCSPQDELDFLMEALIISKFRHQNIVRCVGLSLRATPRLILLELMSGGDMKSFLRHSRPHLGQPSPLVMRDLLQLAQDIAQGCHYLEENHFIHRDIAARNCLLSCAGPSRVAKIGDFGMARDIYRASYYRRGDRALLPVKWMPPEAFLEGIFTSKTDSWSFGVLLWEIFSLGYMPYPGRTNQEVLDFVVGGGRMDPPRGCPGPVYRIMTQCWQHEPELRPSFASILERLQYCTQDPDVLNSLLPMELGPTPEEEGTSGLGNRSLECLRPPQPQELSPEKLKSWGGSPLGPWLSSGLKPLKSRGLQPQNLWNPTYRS
Summary of the method: as §1

WEE1 = biological target: T20, WEE1 (Homo sapiens, UniProt P30291); conditions: read-out: % Retention on Solid Support
T20 construct: purchased DiscoveRx KINOMEscan
Summary of the method: as §1

BRSK2 = biological target: T21, BRSK2 (Homo sapiens, UniProt Q8IWQ3); conditions: read-out: % Retention on Solid Support
T21 construct: purchased DiscoveRx KINOMEscan
T21 sequence (Q8IWQ3 whole entry): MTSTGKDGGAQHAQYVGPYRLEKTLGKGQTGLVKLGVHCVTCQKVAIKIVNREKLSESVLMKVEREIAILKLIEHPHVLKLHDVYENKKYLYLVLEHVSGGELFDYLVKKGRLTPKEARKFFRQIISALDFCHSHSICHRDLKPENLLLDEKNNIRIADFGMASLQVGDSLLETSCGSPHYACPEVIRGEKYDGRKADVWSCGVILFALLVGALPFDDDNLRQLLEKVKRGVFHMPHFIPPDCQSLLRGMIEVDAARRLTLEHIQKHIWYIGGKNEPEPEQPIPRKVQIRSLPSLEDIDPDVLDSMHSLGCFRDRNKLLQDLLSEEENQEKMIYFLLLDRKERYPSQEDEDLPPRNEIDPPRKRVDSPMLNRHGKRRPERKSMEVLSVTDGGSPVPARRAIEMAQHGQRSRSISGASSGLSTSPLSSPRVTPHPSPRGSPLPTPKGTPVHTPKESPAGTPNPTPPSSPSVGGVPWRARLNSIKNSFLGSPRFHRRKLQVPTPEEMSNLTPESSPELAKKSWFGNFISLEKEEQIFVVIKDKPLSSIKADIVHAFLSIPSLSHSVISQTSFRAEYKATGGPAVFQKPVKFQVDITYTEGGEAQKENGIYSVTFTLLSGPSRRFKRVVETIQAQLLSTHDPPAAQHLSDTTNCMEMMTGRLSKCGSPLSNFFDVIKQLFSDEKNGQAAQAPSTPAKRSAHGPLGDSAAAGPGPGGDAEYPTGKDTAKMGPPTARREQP
Summary of the method: as §1

PRKCQ = biological target: T22, PRKCQ (Homo sapiens, UniProt Q04759); conditions: read-out: % Retention on Solid Support
T22 construct: purchased DiscoveRx KINOMEscan
Summary of the method: as §1

CLK3 = biological target: T23, CLK3 (Homo sapiens, UniProt P49761); conditions: read-out: % Retention on Solid Support
T23 construct: purchased DiscoveRx KINOMEscan
T23 sequence (P49761 whole entry): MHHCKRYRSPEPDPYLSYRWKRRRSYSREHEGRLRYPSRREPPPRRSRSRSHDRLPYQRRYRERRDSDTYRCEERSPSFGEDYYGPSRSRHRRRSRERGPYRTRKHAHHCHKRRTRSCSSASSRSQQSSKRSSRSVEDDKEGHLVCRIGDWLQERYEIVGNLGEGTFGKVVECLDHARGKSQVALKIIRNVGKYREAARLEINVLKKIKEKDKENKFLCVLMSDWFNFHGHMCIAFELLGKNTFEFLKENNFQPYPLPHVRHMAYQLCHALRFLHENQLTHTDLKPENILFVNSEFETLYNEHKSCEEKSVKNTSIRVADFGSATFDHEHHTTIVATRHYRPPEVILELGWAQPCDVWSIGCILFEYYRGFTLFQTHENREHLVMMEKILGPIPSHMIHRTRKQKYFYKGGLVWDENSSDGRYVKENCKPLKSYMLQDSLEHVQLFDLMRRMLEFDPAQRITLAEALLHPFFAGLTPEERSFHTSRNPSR
Summary of the method: as §1

MRCKB = biological target: T24, MRCKB (Homo sapiens, UniProt Q9Y5S2); conditions: read-out: % Retention on Solid Support
T24 construct: purchased DiscoveRx KINOMEscan
Summary of the method: as §1

T1 sequence (P45983 whole entry): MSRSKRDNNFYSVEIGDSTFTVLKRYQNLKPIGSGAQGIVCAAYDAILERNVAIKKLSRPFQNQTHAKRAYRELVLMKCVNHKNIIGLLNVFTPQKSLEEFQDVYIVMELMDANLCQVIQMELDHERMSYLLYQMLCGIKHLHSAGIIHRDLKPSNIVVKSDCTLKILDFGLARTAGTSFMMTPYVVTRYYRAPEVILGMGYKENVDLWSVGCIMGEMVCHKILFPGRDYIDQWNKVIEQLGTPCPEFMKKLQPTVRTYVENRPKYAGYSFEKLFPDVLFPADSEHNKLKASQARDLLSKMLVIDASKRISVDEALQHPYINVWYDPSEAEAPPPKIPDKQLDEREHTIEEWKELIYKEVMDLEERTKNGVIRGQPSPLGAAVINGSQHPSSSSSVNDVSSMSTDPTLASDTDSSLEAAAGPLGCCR

N[C@H]1CC[C@H](Nc2cc(-c3cccc(NCc4cccc(F)c4)n3)c(Cl)cn2)CC1 [i-CDK9, N2′-(trans-4-aminocyclohexyl)-5′-chloro-N6-(3-fluorobenzyl)-2,4′-bipyridine-2′,6-diamine]
% Retention on Solid Support (JNK1; 1 µM i-CDK9): 80%
% Retention on Solid Support (JNK1; 10 µM i-CDK9): 34%
remaining binding at 1 µM (PAK6; 1 µM i-CDK9): 100%
remaining binding at 10 µM (PAK6; 10 µM i-CDK9): 100%
remaining binding at 1 µM (RET(M918T); 1 µM i-CDK9): 81%
remaining binding at 10 µM (RET(M918T); 10 µM i-CDK9): 73%
remaining binding at 1 µM (SRMS; 1 µM i-CDK9): 99%
remaining binding at 10 µM (SRMS; 10 µM i-CDK9): 80%
remaining binding at 1 µM (ERBB2; 1 µM i-CDK9): 88%
remaining binding at 10 µM (ERBB2; 10 µM i-CDK9): 100%
remaining binding at 1 µM (ASK2; 1 µM i-CDK9): 100%
remaining binding at 10 µM (ASK2; 10 µM i-CDK9): 92%
remaining binding at 1 µM (PCTK3; 1 µM i-CDK9): 33%
remaining binding at 10 µM (PCTK3; 10 µM i-CDK9): 0.15%
remaining binding at 1 µM (MST4; 1 µM i-CDK9): 100%
remaining binding at 10 µM (MST4; 10 µM i-CDK9): 100%
remaining binding at 1 µM (SRC; 1 µM i-CDK9): 87%
remaining binding at 10 µM (SRC; 10 µM i-CDK9): 100%
remaining binding at 1 µM (DAPK3; 1 µM i-CDK9): 90%
remaining binding at 10 µM (DAPK3; 10 µM i-CDK9): 70%
remaining binding at 1 µM (EPHA2; 1 µM i-CDK9): 100%
remaining binding at 10 µM (EPHA2; 10 µM i-CDK9): 100%
remaining binding at 1 µM (PCTK1; 1 µM i-CDK9): 19%
remaining binding at 10 µM (PCTK1; 10 µM i-CDK9): 0.85%
% Retention on Solid Support (ARK5; 1 µM i-CDK9): 72%
% Retention on Solid Support (ARK5; 10 µM i-CDK9): 100%
remaining binding at 1 µM (FLT3(K663Q); 1 µM i-CDK9): 100%
remaining binding at 10 µM (FLT3(K663Q); 10 µM i-CDK9): 74%
remaining binding at 1 µM (ERK8; 1 µM i-CDK9): 85%
remaining binding at 10 µM (ERK8; 10 µM i-CDK9): 20%
remaining binding at 1 µM (PDPK1; 1 µM i-CDK9): 100%
remaining binding at 10 µM (PDPK1; 10 µM i-CDK9): 90%
remaining binding at 1 µM (MAP3K3; 1 µM i-CDK9): 100%
remaining binding at 10 µM (MAP3K3; 10 µM i-CDK9): 93%
remaining binding at 1 µM (PAK7; 1 µM i-CDK9): 75%
remaining binding at 10 µM (PAK7; 10 µM i-CDK9): 81%
remaining binding at 1 µM (LTK; 1 µM i-CDK9): 92%
remaining binding at 10 µM (LTK; 10 µM i-CDK9): 100%
remaining binding at 1 µM (WEE1; 1 µM i-CDK9): 100%
remaining binding at 10 µM (WEE1; 10 µM i-CDK9): 100%
remaining binding at 1 µM (BRSK2; 1 µM i-CDK9): 93%
remaining binding at 10 µM (BRSK2; 10 µM i-CDK9): 88%
remaining binding at 1 µM (PRKCQ; 1 µM i-CDK9): 100%
remaining binding at 10 µM (PRKCQ; 10 µM i-CDK9): 88%
remaining binding at 1 µM (CLK3; 1 µM i-CDK9): 88%
remaining binding at 10 µM (CLK3; 10 µM i-CDK9): 25%
remaining binding at 1 µM (MRCKB; 1 µM i-CDK9): 95%
remaining binding at 10 µM (MRCKB; 10 µM i-CDK9): 100%
